For 18 compounds, Ki results are on record in patent publication US8580794B2 (AbbVie Inc., priority 2009, dated 2013).

Molecules are shown by their SMILES.

In this test the target is GST-Bc1-2 (Homo sapiens, UniProt P10415). The experiment in a line: Time Resolved-Fluorescence Resonance Energy Transfer (TR-FRET) Bcl-2 binding assay with F-Bak peptide probe. The conditions noted are these: GST-Bcl-2 1 nM, F-Bak probe 100 nM, Tb-anti-GST 1 nM; '<' = below limit of detection; read-out: TR-FRET Bcl-2 Binding Ki.

What is called Ki is the dissociation constant of the complex between target and ligand, obtained from inhibition or displacement.

Chain of GST-Bc1-2 (P10415 whole entry): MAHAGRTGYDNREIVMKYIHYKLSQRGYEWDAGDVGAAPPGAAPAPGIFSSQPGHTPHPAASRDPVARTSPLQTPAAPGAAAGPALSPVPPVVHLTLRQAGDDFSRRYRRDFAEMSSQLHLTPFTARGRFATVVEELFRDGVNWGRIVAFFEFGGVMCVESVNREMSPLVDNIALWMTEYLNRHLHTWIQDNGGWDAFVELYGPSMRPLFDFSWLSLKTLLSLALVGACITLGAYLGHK

As to `CC1(C)CCC(CN2CCN(c3ccc(C(=O)NS(=O)(=O)c4ccc(OCC5(F)CCOCC5)c(S(=O)(=O)C(F)(F)F)c4)c(Oc4cnc5[nH]ccc5c4)c3)CC2)=C(c2ccc(Cl)cc2)C1` [Example 220, 4-(4-{[2-(4-chlorophenyl)-4,4-dimethylcyclohex-1-en-1-yl]methyl}piperazin-1-yl)-N-({4-[(4-fluorotetrahydro-2H-pyran-4-yl)methoxy]-3-[(trifluoromethyl)sulfonyl]phenyl}sulfonyl)-2-(1H-pyrrolo[2,3-b]pyridin-5-yloxy)benzamide], the Ki was found to be 0.988 nM.

For the compound `CC1(C)CCC(CN2CCN(c3ccc(C(=O)NS(=O)(=O)c4ccc(OCC5(C)CCOCC5)c([N+](=O)[O-])c4)c(Oc4cnc5[nH]ccc5c4)c3)CC2)=C(c2ccc(Cl)cc2)C1` [Example 221, 4-(4-{[2-(4-chlorophenyl)-4,4-dimethylcyclohex-1-en-1-yl]methyl}piperazin-1-yl)-N-({4-[(4-methyltetrahydro-2H-pyran-4-yl)methoxy]-3-nitrophenyl}sulfonyl)-2-(1H-pyrrolo[2,3-b]pyridin-5-yloxy)benzamide], the Ki came to 0.049 nM.

For `CCOC(=O)N1CCN(c2ccc(S(=O)(=O)NC(=O)c3ccc(N4CCN(CC5=C(c6ccc(Cl)cc6)CC(C)(C)CC5)CC4)cc3Oc3cnc4[nH]ccc4c3)cc2[N+](=O)[O-])CC1` [Example 222, ethyl 4-(4-{[4-(4-{[2-(4-chlorophenyl)-4,4-dimethylcyclohex-1-en-1-yl]methyl}piperazin-1-yl)-2-(1H-pyrrolo[2,3-b]pyridin-5-yloxy)benzoyl]sulfamoyl}-2-nitrophenyl)piperazine-1-carboxylate], the Ki came out at 0.938 nM.

For the compound `CC1(C)CCC(CN2CCN(c3ccc(C(=O)NS(=O)(=O)c4ccc(N5CCC(N6CCOCC6)CC5)c([N+](=O)[O-])c4)c(Oc4cnc5[nH]ccc5c4)c3)CC2)=C(c2ccc(Cl)cc2)C1` [Example 223, 4-(4-{[2-(4-chlorophenyl)-4,4-dimethylcyclohex-1-en-1-yl]methyl}piperazin-1-yl)-N-({4-[4-(morpholin-4-yl)piperidin-1-yl]-3-nitrophenyl}sulfonyl)-2-(1H-pyrrolo[2,3-b]pyridin-5-yloxy)benzamide], the Ki came out at 0.053 nM.

Consider `CC1(C)CCC(CN2CCN(c3ccc(C(=O)NS(=O)(=O)c4ccc(N[C@@H]5CCN(C(CF)CF)C5)c(S(=O)(=O)C(F)(F)F)c4)c(Oc4cnc5[nH]ccc5c4)c3)CC2)=C(c2ccc(Cl)cc2)C1` [Example 225, 4-(4-{[2-(4-chlorophenyl)-4,4-dimethylcyclohex-1-en-1-yl]methyl}piperazin-1-yl)-N-[(4-{[(3R)-1-(1,3-difluoropropan-2-yl)pyrrolidin-3-yl]amino}-3-[(trifluoromethyl)sulfonyl]phenyl)sulfonyl]-2-(1H-pyrrolo[2,3-b]pyridin-5-yloxy)benzamide], for which the Ki stood at 0.196 nM.

`CC(C)N1CCC(Nc2ccc(S(=O)(=O)NC(=O)c3ccc(N4CCN(CC5=C(c6ccc(Cl)cc6)CC(C)(C)CC5)CC4)cc3Oc3cnc4[nH]ccc4c3)cc2[N+](=O)[O-])CC1` [Example 226, 4-(4-{[2-(4-chlorophenyl)-4,4-dimethylcyclohex-1-en-1-yl]methyl}piperazin-1-yl)-N-({4-[(1-isopropylpiperidin-4-yl)amino]-3-nitrophenyl}sulfonyl)-2-(1H-pyrrolo[2,3-b]pyridin-5-yloxy)benzamide]: the Ki is 0.139 nM.

As for `CC1(C)CCC(CN2CCN(c3ccc(C(=O)NS(=O)(=O)c4ccc(NC5CCN(C(C)(C)C)CC5)c([N+](=O)[O-])c4)c(Oc4cnc5[nH]ccc5c4)c3)CC2)=C(c2ccc(Cl)cc2)C1` [Example 227, N-({4-[(1-tert-butylpiperidin-4-yl)amino]-3-nitrophenyl}sulfonyl)-4-(4-{[2-(4-chlorophenyl)-4,4-dimethylcyclohex-1-en-1-yl]methyl}piperazin-1-yl)-2-(1H-pyrrolo[2,3-b]pyridin-5-yloxy)benzamide], the Ki is below 0.01 nM.

With `COCCN1CCCC(CNc2ccc(S(=O)(=O)NC(=O)c3ccc(N4CCN(CC5=C(c6ccc(Cl)cc6)CC(C)(C)CC5)CC4)cc3Oc3cnc4[nH]ccc4c3)cc2[N+](=O)[O-])C1` (stereo not drawn) [Example 228, 4-(4-{[2-(4-chlorophenyl)-4,4-dimethylcyclohex-1-en-1-yl]methyl}piperazin-1-yl)-N-{[4-({[1-(2-methoxyethyl)piperidin-3-yl]methyl}amino)-3-nitrophenyl]sulfonyl}-2-(1H-pyrrolo[2,3-b]pyridin-5-yloxy)benzamide], the Ki came to 26.8 nM.

Consider `CC1(C)CCC(CN2CCN(c3ccc(C(=O)NS(=O)(=O)c4ccc(NCC5CCCN(CC#N)C5)c([N+](=O)[O-])c4)c(Oc4cnc5[nH]ccc5c4)c3)CC2)=C(c2ccc(Cl)cc2)C1` (stereo not drawn) [Example 229, 4-(4-{[2-(4-chlorophenyl)-4,4-dimethylcyclohex-1-en-1-yl]methyl}piperazin-1-yl)-N-{[4-({[1-(cyanomethyl)piperidin-3-yl]methyl}amino)-3-nitrophenyl]sulfonyl}-2-(1H-pyrrolo[2,3-b]pyridin-5-yloxy)benzamide], for which the Ki amounted to 2.11 nM.

Turning to `CN1CCC(F)(COc2ccc(S(=O)(=O)NC(=O)c3ccc(N4CCN(CC5=C(c6ccc(Cl)cc6)CC(C)(C)CC5)CC4)cc3Oc3cnc4[nH]ccc4c3)cc2S(=O)(=O)C(F)(F)F)CC1` [Example 230, 4-(4-{[2-(4-chlorophenyl)-4,4-dimethylcyclohex-1-en-1-yl]methyl}piperazin-1-yl)-N-({4-[(4-fluoro-1-methylpiperidin-4-yl)methoxy]-3-[(trifluoromethyl)sulfonyl]phenyl}sulfonyl)-2-(1H-pyrrolo[2,3-b]pyridin-5-yloxy)benzamide], the inhibition constant (Ki) is 0.031 nM.

Regarding `CC1(C)CCC(CN2CCN(c3ccc(C(=O)NS(=O)(=O)c4ccc(NN5CCN(C(=O)OC(C)(C)C)CC5)c([N+](=O)[O-])c4)c(Oc4cnc5[nH]ccc5c4)c3)CC2)=C(c2ccc(Cl)cc2)C1` [Example 232, tert-butyl 4-[(4-{[4-(4-{[2-(4-chlorophenyl)-4,4-dimethylcyclohex-1-en-1-yl]methyl}piperazin-1-yl)-2-(1H-pyrrolo[2,3-b]pyridin-5-yloxy)benzoyl]sulfamoyl}-2-nitrophenyl)amino]piperazine-1-carboxylate], the Ki came out at 1.63 nM.

`CC1(C)CCC(CN2CCN(c3ccc(C(=O)NS(=O)(=O)c4ccc(NCC5CCOCC5)c(S(F)(F)(F)(F)F)c4)c(Oc4cnc5[nH]ccc5c4)c3)CC2)=C(c2ccc(Cl)cc2)C1` [Example 233, 4-(4-{[2-(4-chlorophenyl)-4,4-dimethylcyclohex-1-en-1-yl]methyl}piperazin-1-yl)-N-({3-(pentafluoro-lambda˜6˜-sulfanyl)-4-[(tetrahydro-2H-pyran-4-ylmethyl)amino]phenyl}sulfonyl)-2-(1H-pyrrolo[2,3-b]pyridin-5-yloxy)benzamide]: the Ki was determined as 1.65 nM.

As to `COC1(COc2ccc(S(=O)(=O)NC(=O)c3ccc(N4CCN(CC5=C(c6ccc(Cl)cc6)CC(C)(C)CC5)CC4)cc3Oc3cnc4[nH]ccc4c3)cc2[N+](=O)[O-])CCOCC1` [Example 234, 4-(4-{[2-(4-chlorophenyl)-4,4-dimethylcyclohex-1-en-1-yl]methyl}piperazin-1-yl)-N-({4-[(4-methoxytetrahydro-2H-pyran-4-yl)methoxy]-3-nitrophenyl}sulfonyl)-2-(1H-pyrrolo[2,3-b]pyridin-5-yloxy)benzamide], the Ki is 0.115 nM.

On to `CC1(C)CCC(CN2CCN(c3ccc(C(=O)NS(=O)(=O)c4ccc(O[C@@H]5CCN(C(CF)CF)C5)c([N+](=O)[O-])c4)c(Oc4cnc5[nH]ccc5c4)c3)CC2)=C(c2ccc(Cl)cc2)C1` [Example 235, 4-(4-{[2-(4-chlorophenyl)-4,4-dimethylcyclohex-1-en-1-yl]methyl}piperazin-1-yl)-N-[(4-{[(3R)-1-(1,3-difluoropropan-2-yl)pyrrolidin-3-yl]oxy}-3-nitrophenyl)sulfonyl]-2-(1H-pyrrolo[2,3-b]pyridin-5-yloxy)benzamide], for which the Ki is 0.023 nM.

`CC1(C)CCC(CN2CCN(c3ccc(C(=O)NS(=O)(=O)c4ccc(NN5CCN(C6COC6)CC5)c([N+](=O)[O-])c4)c(Oc4cnc5[nH]ccc5c4)c3)CC2)=C(c2ccc(Cl)cc2)C1` [Example 236, 4-(4-{[2-(4-chlorophenyl)-4,4-dimethylcyclohex-1-en-1-yl]methyl}piperazin-1-yl)-N-[(3-nitro-4-{[4-(oxetan-3-yl)piperazin-1-yl]amino}phenyl)sulfonyl]-2-(1H-pyrrolo[2,3-b]pyridin-5-yloxy)benzamide]: the Ki turned out to be 0.033 nM.

Turning to `CC1(C)CCC(CN2CCN(c3ccc(C(=O)NS(=O)(=O)c4ccc(NN5CCN(C6CCOCC6)CC5)c([N+](=O)[O-])c4)c(Oc4cnc5[nH]ccc5c4)c3)CC2)=C(c2ccc(Cl)cc2)C1` [Example 237, 4-(4-{[2-(4-chlorophenyl)-4,4-dimethylcyclohex-1-en-1-yl]methyl}piperazin-1-yl)-N-[(3-nitro-4-{[4-(tetrahydro-2H-pyran-4-yl)piperazin-1-yl]amino}phenyl)sulfonyl]-2-(1H-pyrrolo[2,3-b]pyridin-5-yloxy)benzamide], the Ki worked out at 0.024 nM.

Turning to `CC1(C)CCC(CN2CCN(c3ccc(C(=O)NS(=O)(=O)c4ccc(N[C@@H]5CCOC5)c([N+](=O)[O-])c4)c(Oc4cnc5[nH]ccc5c4)c3)CC2)=C(c2ccc(Cl)cc2)C1` [Example 238, 4-(4-{[2-(4-chlorophenyl)-4,4-dimethylcyclohex-1-en-1-yl]methyl}piperazin-1-yl)-N-({3-nitro-4-[(3R)-tetrahydrofuran-3-ylamino]phenyl}sulfonyl)-2-(1H-pyrrolo[2,3-b]pyridin-5-yloxy)benzamide], the Ki was below 0.01 nM.

As to `CC1(C)CCC(CN2CCN(c3ccc(C(=O)NS(=O)(=O)c4ccc(NCC5CCC(F)(F)CC5)c([N+](=O)[O-])c4)c(Oc4cnc5[nH]ccc5c4)c3)CC2)=C(c2ccc(Cl)cc2)C1` [Example 239, 4-(4-{[2-(4-chlorophenyl)-4,4-dimethylcyclohex-1-en-1-yl]methyl}piperazin-1-yl)-N-[(4-{[(4,4-difluorocyclohexyl)methyl]amino}-3-nitrophenyl)sulfonyl]-2-(1H-pyrrolo[2,3-b]pyridin-5-yloxy)benzamide], the Ki turned out to be 0.026 nM.
